# Experimental data reported in patent US9394309B2, “Substituted phenylimidazopyrazoles and their use” (BAYER INTELLECTUAL PROPERTY GmbH, priority 2012, dated 2016).
# Legend:
# [1] = target: intracellular domain of human Tie2 (GST fusion protein) (Homo sapiens (Human), UniProt Q02763); assay: Tie2 kinase assay (Tie2-TR-FRET); type: biochemical; conditions: ATP concentration 1 mM; in some cases means of several independent determinations
# Description: The Tie2-inhibitory activity of the substances according to the invention was determined with the aid of one of the Tie2-TR-FRET assays described in the sections below at an ATP concentration of 1 mM (TR-FRET=Time-Resolved Fluorescence Resonance Energy Transfer):
# The enzyme used was a recombinant fusion protein of glutathione S-transferase (GST) and the intracellular domain of human Tie2 (amino acids 776-1124) which was expressed in Baculovirus-infected insect cells (Hi5) and was purified by affinity chromatography on glutathione-Sepharose. Alternatively, it is also possible to use commercially available GST-His6-Tie2 fusion protein (ProQinase GmbH, Freiburg im Breisgau, Germany). The substrate used for the kinase reaction was the biotinylated peptide biotin-Ahx-[…] […]
# The reaction was stopped by addition of 5 μl of a solution of TR-FRET detection reagents [200 nM streptavidin-XL665 and 2 nM PT66-Eu chelate, a europium chelate-labelled anti-phosphotyrosine antibody (Perkin-Elmer); alternatively, it is also possible to use PT66-Tb cryptate (Cisbio Bioassays, Codolet, France)] in aqueous EDTA solution [90 mM EDTA, 0.28% (w/v) bovine serum albumin (BSA) in 50 mM HEPES pH 7.5]. […] The amount of phosphorylated substrate was then determined by measuring the resonance energy transfer from PT66-Eu chelate to streptavidin-XL665. […]
# endogenous Tie2 receptor = endogenous Tie2 receptor (Homo sapiens (Human), UniProt Q02763); assay: Tie2-pTyr-ELISA (Tie2 autophosphorylation in HUVEC); type: cell-based; conditions: autophosphorylation elevated by 4 mM sodium orthovanadate, from 2-7 independent measurements
# Description: The cellular activity of the compounds according to the invention as Tie2 kinase inhibitors was determined in human endothelial cells (HUVEC) by measuring the inhibition of the autophosphorylation, elevated by treatment with sodium orthovanadate, of the endogenous Tie2 receptor by means of a Tie2/phosphotyrosine sandwich ELISA.
# Human endothelial cells (human umbilical vein endothelial cells, HUVEC) were obtained from Cellsystems (FC-0003), cultured in Vasculife VEGF complete medium (Cellsystems, LL-1020) with 2% foetal calf serum (FCS) at 37° C./5% CO2 and used for Tie2-ELISA measurements up to passage 8.
# HUVEC were plated in a culture volume of 100 μl of Vasculife VEGF complete medium at a cell density of 30 000 cells per well in transparent collagen-coated 96-well cell culture plates (Falcon, #353075) and incubated in an incubation cabinet at 37° C./5% CO2 overnight. The test substances dissolved in DMSO were used to prepare in each case one dilution series in Vasculife VEGF low-serum medium [basal medium with LifeFactors (Cellsystems, LM-0002), without FCS, with 0.1% BSA] without sodium orthovanadate and one dilution series in Vasculife VEGF low-serum-medium with 8 mM sodium orthovanadate in the desired concentrations in the range from […] to […], the final DMSO concentration being 1%. […]
# Sequence of intracellular domain of human Tie2 (GST fusion protein) (Q02763 776-1124): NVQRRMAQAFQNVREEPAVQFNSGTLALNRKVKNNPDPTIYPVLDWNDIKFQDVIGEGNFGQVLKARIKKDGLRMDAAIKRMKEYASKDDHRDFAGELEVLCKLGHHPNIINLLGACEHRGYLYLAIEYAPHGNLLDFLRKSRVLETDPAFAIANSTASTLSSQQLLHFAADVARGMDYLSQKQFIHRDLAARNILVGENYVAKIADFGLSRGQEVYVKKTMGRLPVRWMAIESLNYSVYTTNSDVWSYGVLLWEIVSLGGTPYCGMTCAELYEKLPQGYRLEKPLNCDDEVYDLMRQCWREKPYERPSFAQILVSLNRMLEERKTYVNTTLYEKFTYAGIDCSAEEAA
# Sequence of endogenous Tie2 receptor (Q02763 23-1124): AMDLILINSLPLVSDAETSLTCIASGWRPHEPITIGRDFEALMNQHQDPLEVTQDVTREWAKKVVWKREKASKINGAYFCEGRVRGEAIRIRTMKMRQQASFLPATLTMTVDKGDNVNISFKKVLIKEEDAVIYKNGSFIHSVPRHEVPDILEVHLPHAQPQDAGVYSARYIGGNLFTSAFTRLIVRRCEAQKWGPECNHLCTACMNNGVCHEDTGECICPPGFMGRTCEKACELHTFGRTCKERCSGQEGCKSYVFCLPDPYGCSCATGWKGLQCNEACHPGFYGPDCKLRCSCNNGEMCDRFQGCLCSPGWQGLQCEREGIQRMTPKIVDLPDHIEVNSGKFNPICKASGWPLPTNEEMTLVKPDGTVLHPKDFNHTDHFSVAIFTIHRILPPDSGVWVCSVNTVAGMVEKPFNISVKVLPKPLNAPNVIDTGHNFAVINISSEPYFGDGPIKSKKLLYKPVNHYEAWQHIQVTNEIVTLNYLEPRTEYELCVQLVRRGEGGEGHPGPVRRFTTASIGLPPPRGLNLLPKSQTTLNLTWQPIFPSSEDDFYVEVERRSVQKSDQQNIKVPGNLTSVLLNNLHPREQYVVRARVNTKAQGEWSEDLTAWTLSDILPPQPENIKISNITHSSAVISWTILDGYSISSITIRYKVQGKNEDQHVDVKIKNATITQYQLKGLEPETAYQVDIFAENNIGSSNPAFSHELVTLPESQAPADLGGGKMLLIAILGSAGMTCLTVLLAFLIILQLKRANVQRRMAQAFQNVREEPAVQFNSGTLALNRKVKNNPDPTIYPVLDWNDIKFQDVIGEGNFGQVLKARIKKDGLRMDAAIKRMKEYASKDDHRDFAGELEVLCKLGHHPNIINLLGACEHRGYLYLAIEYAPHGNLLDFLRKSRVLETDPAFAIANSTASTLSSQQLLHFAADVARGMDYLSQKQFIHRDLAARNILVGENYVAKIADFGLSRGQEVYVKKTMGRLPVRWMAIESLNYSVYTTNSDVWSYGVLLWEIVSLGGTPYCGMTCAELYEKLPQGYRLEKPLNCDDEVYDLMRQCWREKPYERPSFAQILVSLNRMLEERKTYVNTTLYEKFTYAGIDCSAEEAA
smiles,measurement,setting,value
"Cc1ccc(NC(=O)c2cc(C#N)cc(S(F)(F)(F)(F)F)c2)cc1-n1ccn2nc(-c3cn[nH]c3)cc12 [Example 85, 3-Cyano-N-{4-methyl-3-[6-(1H-pyrazol-4-yl)-1H-imidazo[1,2-b]pyrazol-1-yl]phenyl}-5-(pentafluoro-λ^6-sulphanyl)benzamide]",IC50,[1],20 nM
same,IC50,endogenous Tie2 receptor,44 nM
